Data set [1] concerns Mexican bean beetle (Epilachna varivestis, Muls.) larvae. Description: Mexican bean beetle leaf spray test. It is filed as in vivo. Set-up: key: A: excellent control; B: partial control; C: no control at 500 ppm. As to conditions: 500 parts per million, fourth instar larvae, three days. On the procedure:
Suspensions of the test compounds were prepared by dissolving one gram of compound in 50 milliliters of acetone in which had been dissolved 0.1 gram (10 percent of the weight of compound) of an alkylphenoxy polyethoxyethanol surfactant, as an emulsifying or dispersing agent. The resulting solution was mixed into 150 milliliters of water to give roughly 200 milliliters of a suspension containing the compound in finely divided form. The thus-prepared stock suspension contained 0.5 percent by weight of compound. The concentrations in parts per million by weight employed in the tests described hereinbelow were obtained by appropriate dilutions of the stock suspension with water. The test procedures were as follows:
Fourth instar larvae of the Mexican bean beetle (Epilachna varivestis, Muls.), reared on Tendergreen bean plants at a temperature of 80±5° F. and 50±5° F. percent relative humdity, were the test insects.
The test compounds were formulated by diluting the stock suspension with water to give a suspension containing 500 parts of test compound per million parts of final formulation. Tendergreen bean plants of standard height and age were placed on a revolving turntable and sprayed with 100-110 milliliters of test compound formulation by use of a DeVilbiss spray gun set at 40 psig air pressure. This application, which lasted 25 seconds, was sufficient to wet the plants to run-off. As a control, 100-110 milliliters of a water-acetone-emulsifier solution containing no test compound was also sprayed on infested plants. When dry, the paired leaves were separated and each was placed in a 9 centimeter Petri dish lined with moistened filter paper. Five randomly selected larvae were introduced into each dish, and the dishes were closed. The closed dishes were labeled and held at a temperature of 80±5° F., for three days. Although the larvae could easily consume the leaf within 24 to 48 hours, no more food was added. Larvae which were unable to move the length of the body, even upon stimulation, were considered dead.
In these tests the pesticidal activity of the compounds at the indicated dosage rate against aphid, Southern Armyworm, Bean Beetle and housefly was rated as follows: […]

Data set [2] relates to housefly adults (Musca domestica). Nature of the data set: Comparative residual effect in soil. It is filed as in vivo. On the procedure: Selected species of the new compounds were evaluated for their residual pesticidal activity in soil. […] The residual activity test were conducted using five to seven-day old housefly adults (Musca domestica).
The soil mixture used was one part agricultural soil and three parts sand. The agricultural soil was stored in plastic bags in a freezer, immediately after removal from the field. This was done to reduce microbial multiplication. Two weeks prior to use, the soil was thawed and held at room temperature to allow microbial population to equilibrate. The sand and soil were sifted to remove clumps and debris and were then blended by rolling on a roller mill in a closed metal container. The moisture level was adjusted to 15% by weight.
The concentration in the soil of the compound to be tested was four times the amount (in parts per million) necessary to achieve a mortality rate of 50% on contact with the soil (LD50). This is in accordance with the procedure developed by C. R. Harris of the Research Institute, Canadian Department of Agriculture, London, Ontario. Such procedure is disclosed in "Biological Activity of Chloropyrifos, Chlorpyrifor-Methyl, Phorate, and Counter® in Soil", The Canadian Entomologist, Vol. 109, pp. 1115-1120 (August 1977); and in "Laboratory Studies on the Persistance of Biological Activity of Some Insecticides in Soils", Journal of Economic Entomology, Vol. 62, No. 6, pp. 1437-1441 (December 1969).
An appropriate amount of compound was dissolved in an acetone--Triton solution and was diluted with water. Five mililiters of the formulated chemical was applied to four ounces of soil mixture and rolled in a 16-ounce glass jar to blend the compound evenly with the soil. Ten mililiters of granular cane sugar was then mixed thoroughly with the treated soil in an eight-ounce plastic container.
Twenty-five housefly adults, anesthetized with CO2, were then transferred to the soil and were covered with a perforated plastic lid. The test containers were held for 24 hours in a constant environment at a temperature of 80±5° F. and a relative humidity of […]. Mortality was based on the ability of the fly to move in a normal manner without spinning.
The above process was repeated on treated soil which had been incubated at 25° C. and 90% relative humidity for 1, 4, 6 and 8 weeks after initial exposure. This was necessary because the soil is incubated without sugar, sugar being added at the time of reinfestation. For this reason, appropriate volumes of soil had to be treated at the start of the soil test to last for the expected residual period.

The source of these data is US4496591A, “Insecticidal bis-carbamate sulfides” (priority 1981, dated 1985).

For the compound `CSC(C)=NOC(=O)N(C)SN(C)C(=O)Oc1cccc(C=O)c1` [Compound 3], the “Mexican Bean Beetle, pesticidal activity rating” value in data set [1] is recorded as “A”. Moreover, in data set [2] (0 weeks, soil concentration four times LD50, housefly, 24 hours), the “Residual effect in soil (mortality), 0 weeks” value turned out to be 100. Further, in data set [2] (1 week, soil concentration four times LD50, 25° C., 90% relative humidity, 10080 min), the “Residual effect in soil (mortality), 1 week” value amounted to 100. In addition, the “Residual effect in soil (mortality), 4 weeks” value in data set [2] (4 weeks, soil concentration four times LD50, 25° C., 90% relative humidity, 40320 min) was determined as 73. For the same compound, in data set [2] (8 weeks, soil concentration four times LD50, 25° C., 90% relative humidity, 80640 min), the “Residual effect in soil (mortality), 8 weeks” value was 40. In addition, in data set [2] (soil concentration four times LD50, housefly), the “Residual Activity (weeks)” value was 4-8 weeks.
